Data as given in the NIST ThermoML archive (doi:10.1021/je034002l).
± gives the expanded uncertainty stated by the source.

Assays:
[1] = 101.3 kPa, Liquid
[2] = xn = mol fraction of the nth substance listed; details: 101.3 kPa, Liquid, x2 = 0

Compound `CCCCCCCl` [1-chlorohexane] has a mass density ([1]; 293.15 K) of 878.52 ± 0.84 kg/m3, a viscosity ([1]; 293.15 K) of 0.7704 ± 0.01 mPa·s and a mass density ([1]; 298.15 K) of 873.75 ± 0.88 kg/m3. The viscosity ([1]; 298.15 K) was 0.7173 ± 0.0096 mPa·s, the mass density ([1]; 303.15 K) was 868.98 ± 0.91 kg/m3 and the viscosity ([1]; 303.15 K) was 0.6702 ± 0.0091 mPa·s. For the same compound, the mass density ([1]; 308.15 K) was 864.21 ± 0.95 kg/m3, the viscosity ([1]; 308.15 K) was 0.6283 ± 0.0086 mPa·s and the mass density ([1]; 313.15 K) was 859.44 ± 0.99 kg/m3. The viscosity ([1]; 313.15 K) was 0.591 ± 0.0082 mPa·s, the mass density ([1]; 318.15 K) was 854.67 ± 1 kg/m3 and the viscosity ([1]; 318.15 K) was 0.558 ± 0.0078 mPa·s. It also gave a mass density ([1]; 323.15 K) of 849.9 ± 1.1 kg/m3, a viscosity ([1]; 323.15 K) of 0.5285 ± 0.0075 mPa·s and a mass density ([1]; 328.15 K) of 845.12 ± 1.1 kg/m3. It also gave a viscosity ([1]; 328.15 K) of 0.5019 ± 0.0072 mPa·s, a mass density ([1]; 333.15 K) of 840.35 ± 1.1 kg/m3 and a viscosity ([1]; 333.15 K) of 0.4778 ± 0.0069 mPa·s.

Compound `CCCCCC` [hexane] has a mass density ([1]; 293.15 K) of 659.44 ± 0.52 kg/m3, a viscosity ([1]; 293.15 K) of 0.3163 ± 0.005 mPa·s and a mass density ([1]; 298.15 K) of 654.93 ± 0.56 kg/m3. For the same compound, the viscosity ([1]; 298.15 K) was 0.3036 ± 0.0049 mPa·s, the mass density ([1]; 303.15 K) was 650.36 ± 0.6 kg/m3 and the viscosity ([1]; 303.15 K) was 0.2914 ± 0.0047 mPa·s. For the same compound, the mass density ([1]; 308.15 K) was 645.74 ± 0.64 kg/m3, the viscosity ([1]; 308.15 K) was 0.2797 ± 0.0046 mPa·s and the mass density ([1]; 313.15 K) was 641.08 ± 0.68 kg/m3. For the same compound, the viscosity ([1]; 313.15 K) was 0.2685 ± 0.0045 mPa·s, the mass density ([1]; 318.15 K) was 636.37 ± 0.72 kg/m3 and the viscosity ([1]; 318.15 K) was 0.258 ± 0.0044 mPa·s. The mass density ([1]; 323.15 K) was 631.61 ± 0.76 kg/m3, the viscosity ([1]; 323.15 K) was 0.2482 ± 0.0043 mPa·s and the mass density ([1]; 328.15 K) was 626.81 ± 0.8 kg/m3. It also gave a viscosity ([1]; 328.15 K) of 0.2391 ± 0.0042 mPa·s, a mass density ([1]; 333.15 K) of 621.95 ± 0.84 kg/m3 and a viscosity ([1]; 333.15 K) of 0.2308 ± 0.0041 mPa·s.

With `CCCCCC` [hexane] + CCCCCCCl the mass density ([2]; 293.15 K) was 659.44 ± 0.52 kg/m3, the viscosity ([2]; 293.15 K) was 0.3163 ± 0.005 mPa·s and the mass density ([2]; 298.15 K) was 654.93 ± 0.56 kg/m3. For the same compound, the viscosity ([2]; 298.15 K) was 0.3036 ± 0.0049 mPa·s, the mass density ([2]; 303.15 K) was 650.36 ± 0.6 kg/m3 and the viscosity ([2]; 303.15 K) was 0.2914 ± 0.0047 mPa·s. The mass density ([2]; 308.15 K) was 645.74 ± 0.64 kg/m3, the viscosity ([2]; 308.15 K) was 0.2797 ± 0.0046 mPa·s and the mass density ([2]; 313.15 K) was 641.08 ± 0.68 kg/m3. For the same compound, the viscosity ([2]; 313.15 K) was 0.2685 ± 0.0045 mPa·s, the mass density ([2]; 318.15 K) was 636.37 ± 0.72 kg/m3 and the viscosity ([2]; 318.15 K) was 0.258 ± 0.0044 mPa·s. For the same compound, the mass density ([2]; 323.15 K) was 631.61 ± 0.76 kg/m3, the viscosity ([2]; 323.15 K) was 0.2482 ± 0.0043 mPa·s and the mass density ([2]; 328.15 K) was 626.81 ± 0.8 kg/m3. It also gave a viscosity ([2]; 328.15 K) of 0.2391 ± 0.0042 mPa·s, a mass density ([2]; 333.15 K) of 621.95 ± 0.84 kg/m3 and a viscosity ([2]; 333.15 K) of 0.2308 ± 0.0041 mPa·s.
